SMILES strings stand for the structures.

The first experiment relates to HCV 1b-377-neo replicon cells. The experiment is described as follows: HCV Replicon assay, HCV 1b-377-neo replicon cells. The experiment is classed as cell-based, HCV 1b genotype. The settings on record: Hepatitis C virus, Table 2, read-out: Range (EC50 against HCV 1b). As to the method: An HCV Replicon assay was utilized in the present disclosure, and was prepared, conducted and validated as described in commonly owned PCT/US2006/022197 and in O'Boyle et. al. Antimicrob Agents Chemother. 2005 April; 49(4):1346-53.
HCV 1b-377-neo replicon cells were used to test the currently described compound series as well as cells resistant to compound A due to a Y2065H mutation in NS5A (described in application PCT/US2006/022197). The compounds tested were determined to have more than 10-fold less inhibitory activity on cells resistant to compound A than wild-type cells indicating a related mechanism of action between the two compound series. Thus, the compounds of the present disclosure can be effective to inhibit the function of the HCV NS5A protein and are understood to be as effective in combinations as previously described in application PCT/US2006/022197 and commonly owned WO/O4014852. Further, the compounds of the present disclosure can be effective against the HCV 1b genotype. It should also be understood that the compounds of the present disclosure can inhibit multiple genotypes of HCV. […] In one embodiment compounds of the present disclosure are active against the 1a, 1b, 2a, 2b, 3a, 4a, and 5a genotypes.
(A replicon is a self-replicating genome or part of one, used to study replication in cells.)
Take `CCN(CC)C(C)C(=O)N1CCC[C@H]1c1nc(C(F)(F)F)c(-c2ccc(-c3ncc(-c4cnc([C@@H]5CCCN5C(=O)[C@@H](C)N(CC)CC)[nH]4)cn3)cc2)[nH]1` (stereo in doubt) [Example J51, (2R)-1-((2S)-2-(5-(4-(5-(2-((2S)-1-((2R)-2-(diethylamino)propanoyl)-2-pyrrolidinyl)-1H-imidazol-5-yl)-2-pyrimidinyl)phenyl)-4-(trifluoromethyl)-1H-imidazol-2-yl)-1-pyrrolidinyl)-N,N-diethyl-1-oxo-2-propanamine]: the EC50 (commonly the concentration at which the effect is half-maximal) is 1 to 99 nM. As for `CN(C)[C@@H](C(=O)N1CCC[C@H]1c1ncc(-c2ccc(-c3ccc(-c4cnc([C@@H]5CCCN5C(=O)[C@@H](c5ccccc5)N(C)C)[nH]4)cc3)cc2)[nH]1)c1ccccc1` [Example 1, (1R,1′R)-2,2′-(4,4′-biphenyldiylbis(1H-imidazole-5,2-diyl(2S)-2,1-pyrrolidinediyl))bis(N,N-dimethyl-2-oxo-1-phenylethanamine)], the EC50 fell in the range of 0.001 to 0.999 nM. Same read-out and setting: the result for `COC(=O)N[C@@H](C(=O)N(C)[C@@H](C)c1ncc(-c2ccc(-c3ccc(-c4cnc([C@H](C)N(C)C(=O)[C@H](NC(=O)OC)c5ccccc5)[nH]4)cc3)cc2)[nH]1)c1ccccc1` [Example 24-18-1, dimethyl (4,4′-biphenyldiylbis (1H-imidazole-5,2-diyl(1S)-1,1-ethanediyl(methyl-imino)((1R)-2-oxo-1-phenyl-2,1-ethanediyl))) biscarbamate] reads 0.001 to 0.999 nM; that for `C[C@@H](c1ncc(-c2ccc(-c3ccc(-c4cnc([C@H](C)N(C)C(=O)[C@@H](c5ccccc5)N(C)C)[nH]4)cc3)cc2)[nH]1)N(C)C(=O)[C@@H](c1ccccc1)N(C)C` [Example 24-18-2, (2R,2′R)-N,N′-(4,4′-biphenyldiylbis (1H-imidazole-5,2-diyl(1S)-1,1-ethanediyl))bis(2-(dimethylamino)-N-methyl-2-phenylacetamide)], 0.001 to 0.999 nM. Turning to `C[C@@H](c1ncc(-c2ccc(-c3ccc(-c4cnc([C@H](C)N(C)C(=O)[C@@H](c5ccccc5)N5CCCCC5)[nH]4)cc3)cc2)[nH]1)N(C)C(=O)[C@@H](c1ccccc1)N1CCCCC1` [Example 24-18-3, (2R,2′R)-N,N′-(4,4′-biphenyldiylbis (1H-imidazol-5,2-diyl(1S)-1,1-ethanediyl))bis(N-methyl-2-phenyl-2-(1-piperidinyl)acetamide)], the EC50 was 0.001 to 0.999 nM.

As for `COC(=O)N[C@@H](C(=O)N(C)[C@@H](C)c1ncc(-c2ccc(-c3ccc(-c4cnc([C@@H]5CCCN5C(=O)[C@H](NC(=O)OC)c5ccccc5)[nH]4)cc3)cc2)[nH]1)c1ccccc1` [Example 24-18-4, methyl ((1R)-2-((2S)-2-(5-(4′-(2-((1S)-1-(((2R)-2-((methoxycarbonyl)amino)-2-phenylacetyl) (methyl)amino)ethyl)-1H-imidazol-5-yl)-4-biphenylyl)-1H-imidazol-2-yl)-1-pyrrolidinyl)-2-oxo-1-phenylethyl) carbamate], the EC50 fell in the range of 0.001 to 0.999 nM. Same read-out and setting: then `C[C@@H](c1ncc(-c2ccc(-c3ccc(-c4cnc([C@@H]5CCCN5C(=O)[C@@H](c5ccccc5)N(C)C)[nH]4)cc3)cc2)[nH]1)N(C)C(=O)[C@@H](c1ccccc1)N(C)C` [Example 24-18-5, (2R)-2-(dimethylamino)-N-((1S)-1-(5-(4′-(2-((2S)-1-((2R)-2-(dimethylamino)-2-phenylacetyl)-2-pyrrolidinyl)-1H-imidazol-5-yl)-4-biphenylyl)-1H-imidazol-2-yl)ethyl)-N-methyl-2-phenylacetamide], with 0.001 to 0.999 nM; and `COC(=O)N[C@@H](C(=O)N1CCC[C@H]1c1ncc(-c2ccc(-c3ccc(-c4cnc([C@@H]5CCCN5C(=O)Cc5ccccc5)[nH]4)cc3)cc2)[nH]1)c1ccccc1` [Example 28, methyl((1R)-2-oxo-1-phenyl-2-((2S)-2-(5-(4′-(2-((2S)-1-(phenylacetyl)-2-pyrrolidinyl)-1H-imidazol-5-yl)-4-biphenylyl)-1H-imidazol-2-yl)-1-pyrrolidinyl)ethyl)carbamate], with 1 to 99 nM. The same measure, in the same setting: the result for `Cc1cc(-c2cnc([C@@H]3CCCN3C(=O)[C@@H](c3ccccc3)N(C)C)[nH]2)ccc1-c1ccc(-c2cnc([C@@H]3CCCN3C(=O)[C@@H](c3ccccc3)N(C)C)[nH]2)cc1C` [Example 121, (1R,1′R)-2,2′-((2,2′-dimethyl-4,4′-biphenyldiyl)bis(1H-imidazole-5,2-diyl(2S)-2,1-pyrrolidinediyl))bis(N,N-dimethyl-2-oxo-1-phenylethanamine)] reads 0.001 to 0.999 nM; that for `COC(=O)N[C@@H](C(=O)N1CCC[C@H]1c1ncc(-c2ccc(-c3ccc(-c4cnc([C@@H]5CCCN5C(=O)[C@@H](c5ccccc5)N(C)C)[nH]4)cc3C)cc2)[nH]1)c1ccccc1` [Example 126, methyl ((1R)-2-((2S)-2-(5-(4′-(2-((2S)-1-((2R)-2-(dimethylamino)-2-phenylacetyl)-2-pyrrolidinyl)-1H-imidazol-5-yl)-2′-methyl-4-biphenylyl)-1H-imidazol-2-yl)-1-pyrrolidinyl)-2-oxo-1-phenylethyl)carbamate], 0.001 to 0.999 nM; that for `COC(=O)N[C@@H](C(=O)N1CCC[C@H]1c1ncc(-c2ccc(-c3ccc(-c4cnc([C@@H]5CCCN5C(=O)Cc5cccnc5)[nH]4)cc3C)cc2)[nH]1)c1ccccc1` [Example 127, methyl ((1R)-2-((2S)-2-(5-(2′-methyl-4′-(2-((2S)-1-(3-pyridinylacetyl)-2-pyrrolidinyl)-1H-imidazol-5-yl)-4-biphenylyl)-1H-imidazol-2-yl)-1-pyrrolidinyl)-2-oxo-1-phenylethyl)carbamate], 0.001 to 0.999 nM. On the same count and under the same terms, the result for `COC(=O)N[C@@H](C(=O)N1CCC[C@H]1c1ncc(-c2ccc(-c3ccc(-c4cnc([C@@H]5CCCN5C(=O)[C@@H]5CCCO5)[nH]4)cc3C)cc2)[nH]1)c1ccccc1` [Example 128, methyl ((1R)-2-((2S)-2-(5-(2′-methyl-4′-(2-((2S)-1-((2S)-tetrahydro-2-furanylcarbonyl)-2-pyrrolidinyl)-1H-imidazol-5-yl)-4-biphenylyl)-1H-imidazol-2-yl)-1-pyrrolidinyl)-2-oxo-1-phenylethyl)carbamate] reads 0.001 to 0.999 nM; that for `CN(C)[C@@H](C(=O)N1CCC[C@H]1c1ncc(-c2ccc(-c3ccc(-c4cnc([C@@H]5CCCN5C(=O)[C@@H](c5ccccc5)N(C)C)[nH]4)cc3C(F)(F)F)cc2)[nH]1)c1ccccc1` [Example 130, (1R,1′R)-2,2′-((2-(trifluoromethyl)-4,4′-biphenyldiyl)bis(1H-imidazole-5,2-diyl(2S)-2,1-pyrrolidinediyl))bis(N,N-dimethyl-2-oxo-1-phenylethanamine)], 0.001 to 0.999 nM.

The same experiment, now with this note: Table 2, listed as 151 isomer 1, read-out: Range (EC50 against HCV 1b).
On to `CN(C)[C@@H](C(=O)N1CCC[C@H]1c1nc(-c2ccc(-c3ccc(-c4cn(C)c([C@@H]5CCCN5C(=O)[C@@H](c5ccccc5)N(C)C)n4)cc3)cc2)cn1C)c1ccccc1` (single isomer, unassigned) [Example 151 isomer 1], for which the EC50 lay in the range of 1 to 99 nM.

The experiment is the same for the next values; noted with them: Table 2, listed as 151 isomer 2, read-out: Range (EC50 against HCV 1b).
With `CN(C)[C@@H](C(=O)N1CCC[C@H]1c1nc(-c2ccc(-c3ccc(-c4cn(C)c([C@@H]5CCCN5C(=O)[C@@H](c5ccccc5)N(C)C)n4)cc3)cc2)cn1C)c1ccccc1` (single isomer, unassigned) [Example 151 isomer 2], the EC50 lay within 100 to 999 nM.

The experiment is the same for the next values; noted with them: Table 2, read-out: Range (EC50 against HCV 1b).
Take `CC(C)[C@H](NC(=O)OC(C)(C)C)c1ncc(-c2ccc(-c3ccc(-c4cnc([C@@H](NC(=O)OC(C)(C)C)C(C)C)[nH]4)cc3)cc2)[nH]1` [Example 3]: the EC50 lay within 0.001 to 0.999 nM.

For the origin of these results see patent US7745636B2, “Hepatitis C virus inhibitors” (Bristol-Myers Squibb Company, priority 2006, dated 2010).
